According to patent US10047087B2, “Substituted pyrazolo[1,5-A] pyridine as tropomyosin receptor kinase (TrK) inhibitors” (Dr. Reddy's Laboratories Ltd., priority 2011, dated 2018):
Like-named read-outs stand apart in the source and are kept apart here.

How the values were obtained:
TrkA kinase = biological target: T1, TrkA kinase (Homo sapiens, UniProt P04629); experiment: In vitro TrkA inhibitory activity using TR-FRET assay; assay type: biochemical; settings: 5 ng TrkA, 500 μM ATP
T1 construct: purchased Upstate, USA
T1 sequence (P04629 33-796): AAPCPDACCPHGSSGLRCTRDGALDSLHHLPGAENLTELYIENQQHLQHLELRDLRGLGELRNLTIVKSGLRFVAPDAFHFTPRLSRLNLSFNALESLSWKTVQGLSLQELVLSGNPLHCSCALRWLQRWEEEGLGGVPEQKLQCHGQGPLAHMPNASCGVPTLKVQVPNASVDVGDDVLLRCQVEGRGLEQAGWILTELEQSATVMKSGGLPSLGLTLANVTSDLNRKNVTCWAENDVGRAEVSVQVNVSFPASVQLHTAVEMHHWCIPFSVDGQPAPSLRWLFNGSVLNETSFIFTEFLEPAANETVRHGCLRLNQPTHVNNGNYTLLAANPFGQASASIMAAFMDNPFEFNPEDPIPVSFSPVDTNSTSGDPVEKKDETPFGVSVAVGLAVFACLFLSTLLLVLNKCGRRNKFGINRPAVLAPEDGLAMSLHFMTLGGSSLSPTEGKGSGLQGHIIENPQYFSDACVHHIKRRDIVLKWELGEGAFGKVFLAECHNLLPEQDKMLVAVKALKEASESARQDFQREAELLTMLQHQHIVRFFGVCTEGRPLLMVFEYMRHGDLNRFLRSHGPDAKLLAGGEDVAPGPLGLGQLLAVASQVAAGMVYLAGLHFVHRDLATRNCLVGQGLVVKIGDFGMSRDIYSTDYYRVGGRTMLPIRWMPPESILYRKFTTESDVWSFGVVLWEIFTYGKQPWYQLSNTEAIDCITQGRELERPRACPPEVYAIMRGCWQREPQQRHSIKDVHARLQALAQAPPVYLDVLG
Summary of the method: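 Kinase (5 ng) was preincubated with compound for 30 min at 20-35° C before adding 40 nM ULight poly GT and 500 μM ATP; stopped with EDTA after 30 min. Eu-anti-phosphotyrosine antibody (0.5 nM) was read at 615/665 nm with 1% DMSO final. Compounds showing >25% inhibition at 1 μM went to sigmoidal dose-response IC50 fitting.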

[1] = Metabolic stability using Human Liver Microsomes (HLM); assay type: in vitro ADME; settings: pooled human liver microsomes, compound 1 μM, 0.3 mg/ml microsomal protein, 1 mM NADPH
Description: Stability Protocol: Metabolic Stability Using Rat Liver Microsomes (RLM) and Human Liver Microsomes (HLM).
This assay was performed using pooled male rat liver microsomes (In-house prepared as per SOP), Pooled Human liver microsomes (XENOTECH; Batch No— H0630-1110189)). The 100 μl reaction contains the compounds at 1 μM, 0.3 mg/ml microsomal protein and both the co-factors (1 mM NADPH) in buffer and the mixture was incubated at different time points (0, 15, 30, 45, 60, & 90 minutes). The reaction was stopped by the addition of equal volume of acetonitrile containing internal standard (Telmesartin). The precipitated protein was removed by centrifugation and the supernatant were analyzed LC/MS-MS method. The percent parent compound remaining was quantified by analysis using following formula (% parent compound remaining=(peak area at Time x/peak area at T0)×100. The intrinsic clearance was calculated using the following formula. CLint,app: (0.693/in vitro t½)(incubation volume/mg of microsomal protein)(45 mg microsomal protein/gram of liver)(20^a g of liver/kg body weight) • a: 20 and 45 g of liver/kg of body weight were used for human and rat, respectively (Lu C et al., DMD, 2006). Bio-analysis: It was performed in Multiple Reaction Monitoring mode (negative mode) using Applied Biosystems API 4000 coupled to Agilent Technologies 1100 series HPLC on a reverse phase column (Zorbax Eclipse XDB C18, 50×4.6 mm, 5 μm). Celecoxib was used as internal standard both in in-vitro and in-vivo experiments. Mobile phase used 0.05% […] water and acetonitrile (10:90) with a flow rate of 0.6 ml/minute. The injection volume was kept as 10 μl.

[2] = both bounds given in nm, read-out: TrkA inhibitory activity in-vitro IC50
[3] = read-out: TrkA inhibition in-vitro IC50

Compound | IC50 (TrkA kinase; [2]) [nM] | half-life at 1 μM [1] [h] | IC50 (TrkA kinase; [3]) [nM]
O=C(NS(=O)(=O)c1ccc2c(c1)OCO2)c1cnn2ccc(N3CCC[C@@H]3c3cc(F)ccc3F)cc12 [Example 35, (R)-N-(benzo[d][1,3]dioxol-5-ylsulfonyl)-5-(2-(2,5-difluorophenyl)pyrrolidin-1-yl)pyrazolo[1,5-a]pyridine-3-carboxamide] |  | > 1.33 | 50 to 100
O=C(NS(=O)(=O)Cc1ccccc1)c1cnn2ccc(N3CCC[C@@H]3c3cc(F)ccc3F)cc12 [Example 40, (R)-N-(benzylsulfonyl)-5-(2-(2,5-difluorophenyl)pyrrolidin-1-yl)pyrazolo[1,5-a]pyridine-3-carboxamide] |  | > 1.33 | ≤ 50
CCOc1ccc(F)cc1[C@H]1CCCN1c1ccn2ncc(C(=O)NS(=O)(=O)C(C)(C)C)c2c1 [Example 45, (R)-N-(tert-butylsulfonyl)-5-(2-(2-ethoxy-5-fluorophenyl)pyrrolidin-1-yl)pyrazolo[1,5-a]pyridine-3-carboxamide] |  | > 1.33 | 50 to 100
CC(C)(C)S(=O)(=O)NC(=O)c1cnn2ccc(N3CCC[C@@H]3c3cc(F)ccc3OCC3CC3)cc12 [Example 46, (R)-N-(tert-butylsulfonyl)-5-(2-(2-(cyclopropylmethoxy)-5-fluorophenyl)pyrrolidin-1-yl)pyrazolo[1,5-a]pyridine-3-carboxamide] |  | > 1.33 | 50 to 100
CC(C)(C)S(=O)(=O)NC(=O)c1cnn2ccc(N3CCC[C@@H]3c3cc(F)ccc3OC3CCOC3)cc12 (stereo partly drawn) [Example 59, N-(tert-butylsulfonyl)-5-((2R)-2-(5-fluoro-2-((tetrahydrofuran-3-yl)oxy)phenyl)pyrrolidin-1-yl)pyrazolo[1,5-a]pyridine-3-carboxamide] |  | > 1.33 | ≤ 50
COCCOc1ccc(F)cc1[C@H]1CCCN1c1ccn2ncc(C(=O)NS(=O)(=O)C(C)(C)C)c2c1 [Example 65, (R)-N-(tert-butylsulfonyl)-5-(2-(5-fluoro-2-(2-methoxyethoxy)phenyl)pyrrolidin-1-yl)pyrazolo [1,5-a]pyridine-3-carboxamide] |  | > 1.33 | ≤ 50
CC1(S(=O)(=O)NC(=O)c2cnn3ccc(N4C[C@@H](F)C[C@@H]4c4cc(F)ccc4F)cc23)CC1 [Example 74, 5-((2R,4S)-2-(2,5-difluorophenyl)-4-fluoropyrrolidin-1-yl)-N-((1-methylcyclopropyl)sulfonyl)pyrazolo[1,5-a]pyridine-3-carboxamide] |  | > 1.33 | ≤ 50
CC(C)S(=O)(=O)NC(=O)c1cnn2ccc(N3CCC[C@@H]3c3cc(F)ccc3F)c(F)c12 [Example 75, (R)-5-(2-(2,5-difluorophenyl)pyrrolidin-1-yl)-4-fluoro-N-(isopropylsulfonyl)pyrazolo[1,5-a]pyridine-3-carboxamide] | 100 to 500 | > 1.33 | 
CCN(C)S(=O)(=O)NC(=O)c1cnn2ccc(N3CCC[C@@H]3c3cc(F)ccc3OC)cc12 [Example 91, (R)-N-(N-ethyl-N-methylsulfamoyl)-5-(2-(5-fluoro-2-methoxyphenyl)pyrrolidin-1-yl)pyrazolo[1,5-a]pyridine-3-carboxamide] |  | > 1.33 | ≤ 50

Results, then the molecule that gave them:

IC50 (TrkA kinase; [2]) [nM] | half-life at 1 μM [1] [h] | IC50 (TrkA kinase; [3]) [nM] | Compound
100 to 500 | > 1.33 |  | CC1OCCC1S(=O)(=O)NC(=O)c1cnn2ccc(N3CCC[C@@H]3c3cc(F)ccc3F)cc12 (stereo partly drawn) [Example 24, 5-((R)-2-(2,5-difluorophenyl)pyrrolidin-1-yl)-N-((2-methyltetrahydrofuran-3-yl)sulfonyl)pyrazolo[1,5-a] pyridine-3-carboxamide]
 | > 1.33 | ≤ 50 | O=C(NS(=O)(=O)c1ccc(N2CC[C@H](O)C2)nc1)c1cnn2ccc(N3CCC[C@@H]3c3cc(F)ccc3F)cc12 [Example 25, 5-((R)-2-(2,5-difluorophenyl)pyrrolidin-1-yl)-N-((6-((S)-3-hydroxypyrrolidin-1-yl)pyridin-3-yl)sulfonyl)pyrazolo[1,5-a] pyridine-3-carboxamide]
 | > 1.33 | 50 to 100 | COc1ccc(S(=O)(=O)NC(=O)c2cnn3ccc(N4CCC[C@@H]4c4cc(F)ccc4F)cc23)cn1 [Example 26, (R)-5-(2-(2,5-difluorophenyl)pyrrolidin-1-yl)-N-((6-methoxypyridin-3-yl)sulfonyl) pyrazolo[1,5-a]pyridine-3-carboxamide]
100 to 500 | > 1.33 |  | CC(C)(C)S(=O)(=O)NC(=O)c1cnn2ccc(N3CCC[C@@H]3c3cc(F)cc(OC(F)F)c3)cc12 [Example 43, (R)-N-(tert-butylsulfonyl)-5-(2-(3-(difluoromethoxy)-5-fluorophenyl)pyrrolidin-1-yl) pyrazolo[1,5-a]pyridine-3-carboxamide]
 | > 1.33 | ≤ 50 | CC(C)(C)S(=O)(=O)NC(=O)c1cnn2ccc(N3CCC[C@@H]3c3cc(F)ccc3OCCF)cc12 [Example 57, (R)-N-(tert-butylsulfonyl)-5-(2-(5-fluoro-2-(2-fluoroethoxy)phenyl)pyrrolidin-1-yl) pyrazolo[1,5-a]pyridine-3-carboxamide]
 | > 1.33 | ≤ 50 | CN(C)S(=O)(=O)NC(=O)c1cnn2ccc(N3CCC[C@@H]3c3cc(F)ccc3F)cc12 [Example 76, (R)-5-(2-(2,5-difluorophenyl)pyrrolidin-1-yl)-N—(N, N-dimethylsulfamoyl)pyrazolo[1,5-a]pyridine-3-carboxamide]
 | > 1.33 | ≤ 50 | CCN(C)S(=O)(=O)NC(=O)c1cnn2ccc(N3CCC[C@@H]3c3cc(F)ccc3F)cc12 [Example 77, (R)-5-(2-(2,5-difluorophenyl)pyrrolidin-1-yl)-N-(N-ethyl-N-methylsulfamoyl) pyrazolo[1,5-a]pyridine-3-carboxamide]
 | > 1.33 | ≤ 50 | CN(C)S(=O)(=O)NC(=O)c1cnn2ccc(N3C[C@@H](F)C[C@@H]3c3cc(F)ccc3F)cc12 [Example 78, 5-((2R,4S)-2-(2,5-difluorophenyl)-4-fluoropyrrolidin-1-yl)-N-(N,N-dimethylsulfamoyl) pyrazolo[1,5-a]pyridine-3-carboxamide]
 | > 1.33 | ≤ 50 | CCN(C)S(=O)(=O)NC(=O)c1cnn2ccc(N3C[C@@H](F)C[C@@H]3c3cc(F)ccc3F)cc12 [Example 79, 5-((2R,4S)-2-(2,5-difluorophenyl)-4-fluoropyrrolidin-1-yl)-N-(N-ethyl-N-methylsulfamoyl) pyrazolo[1,5-a]pyridine-3-carboxamide]
